Reference: US20060100264A1, “3,3'-Diindolylmethane immune activating compositions” (priority 2004, published 2006)

Key:
[1] = tested on: oligoadenylate-synthase (OAS) family member protein 69 (p69-OAS); test: p69-OAS mRNA expression in MCF-7 cells (microarray, Northern blot, RT-PCR); assay type: cell-based, human
Protocol: (§1) Immune response activating effects of the DIM analogs are examined with cell-based assays for cytokine and cytokine receptor expression. […] We also used a sensitive sandwich ELISA assay to examine levels of IFNγ in medium from confluent cultures of MCF-7 cells that were treated for up to 3 days. DIM derivatives confirmed to have immune response activating activity in our reporter and ELISA assays are subsequently screened in a whole animal cytokine production and Y. enterocolitica infection studies, as described below in Examples VIII and IX.
(§2) An initial cDNA gene expression microarray screen of human breast cancer MCF-7 cells treated with DIM, followed by confirmation of results using Northern blots and quantitative RT-PCR, established the transcriptional activation of IFNγ, IFNγ receptor (IFNGR1), oligoadenylate-synthase (OAS) family member protein 69 (p69-OAS), and interferon-inducible protein 56 (p56), a protein closely related to OAS. […] Maximum induction for IFNγ, IFNGR1, p69-OAS and p56 were 4.6, 3.8, 3.2 and 4.0 fold, respectively.

IFNγ [2] = test: Sandwich ELISA of IFNγ in medium from confluent MCF-7 cultures; assay type: cell-based, human; details: vehicle control virtually undetectable
Protocol: as §1
Using a sensitive sandwich ELISA assay, we examined levels of IFNγ in medium from confluent cultures of MCF-7 cells that were treated with DIM for up to 3 days. […] Levels of IFNγ in the medium of cultured cells were increased following incubations for 1 and 3 days from virtually undetectable levels in the vehicle treated control to approximately 50±10 pg/mL and 80±30 pg/mL, respectively, for the indole treated cells.

[3] = tested on: interferon-inducible protein 56 (p56); test: p56 mRNA expression in DIM-treated MCF-7 cells (cDNA microarray, Northern blot, quantitative RT-PCR); assay type: cell-based, human
Protocol: as §1, §2

MHC-I complex = test: Flow cytometry of cell surface MHC-I expression (FITC-conjugated HLA-ABC antibody); assay type: cell-based, human; details: no IFNγ
Protocol: Induced expression of the MHC-I complex is a well-established and important down-stream target of IFNγ-mediated signal transduction. To examine further the possible synergistic effects of DIM on a significant metabolic product of IFNγ signaling, we tested the effects of co-treatment with DIM on IFNγ induced expression of MHC-I complex in MCF-7 cells.
Flow cytometry analysis of cell surface MHC-I expression was conducted using FITC-conjugated HLA-ABC antibody. In an initial control experiment, cultured MCF-7 cells were pre-treated with 30 μM DIM for 48 hours and then with or without 10 ng/mL IFNγ for another 16 hours. […] In a subsequent experiment in which cells were treated with a range of IFNγ concentrations and analyzed with the anti-MHC-I antibody, a strong signal indicative of IFNγ-induced MHC-I expression was detectable at 0.1 ng/mL and appeared to plateau at 10 ng/mL. In cells treated with vehicle control only, MHC-I expression was not detected in greater than 99% of cells.
Exposure to DIM of cells treated with 10 ng/mL of IFNγ, about 95% of which expressed MHC-I, produced a strong time dependent increase in MFV from 76.04 to 131.41. […] As expected, addition of an IFNγ blocking antibody into the medium before the treatments abrogated the inducing effects of co-treatments of IFNγ and DIM on MHC-I expression, confirming the requirement of the cytokine for the observed effects.

MCF-7 cells [4] = test: Flow cytometry of cell cycling (G1 phase); assay type: cell-based, human; details: up to 3 days; control approximately 50% in G1
Source text: Flow cytometry was used to determine the effects of DIM and IFNγ on cell cycling. […] In control groups approximately 50% of the cells were in G1. Treatment with IFNγ alone caused a small progressive increase in G1 blocked cells of up to 10% above the DMSO control, after 3 days.

MCF-7 cells [5] = test: Cell proliferation over a 4-day treatment period; assay type: cell-based, human; details: 4-day treatment, heat-treated serum
Protocol: Functional consequences of the synergistic effects of DIM and IFNγ on gene expression were examined at the level of proliferation rates. Cell proliferation was measured over a 4-day treatment period with treatments with DIM, IFNγ, or both substances, and compared to a DMSO control. With heat-treated serum, IFNγ alone reduced cell proliferation by as much as 70% compared to controls. DIM treatments reduced proliferation by as much as 60%. […] These effects were accompanied by morphological changes characteristic of apoptosis.

IFNγ [6] = test: IFNγ mRNA expression in DIM-treated MCF-7 cells (cDNA microarray, Northern blot, quantitative RT-PCR); assay type: cell-based, human
Protocol: as §1, §2

IFNGR1 protein = test: Western blot analysis of IFNGR1 protein; assay type: cell-based, human
Protocol: IFNGR1 protein levels increased by approximately 7 fold after 24 h and persisted to 48 h compared to DMSO-treated controls.
Comparison of our results with DIM to our studies with I3C (27) show some distinct differences in the activity of DIM and its in vivo precursor in their effects on IFNγ signaling. […] Similar effects of DIM and I3C were also observed on cell proliferation and cell cycling. […] Thus, a strong level of induction (about 5 fold) was seen after only 6 hours of exposure to DIM, and the maximum induction was attained by 24 hours of treatment with this diindole. In contrast, receptor expression was increased by only about 3 fold following 24 hours of treatment with I3C, and appeared to reach the maximum induction only after about 48 hours of exposure. […] Indeed, we have shown previously that DIM accumulates in the nucleus of MCF-7 cultured cells treated with I3C (28).

[7] = tested on: IL-6, G-CSF, IL-12, TNF-α and IFNγ; test: Serum levels of cytokines in mice; assay type: in vivo

c1ccc2c(Cc3c[nH]c4ccccc34)c[nH]c2c1 [DIM, 3,3′-Diindolylmethane]
Maximum induction of p69-OAS mRNA ([1]; MCF-7 cells treated with DIM): 3.2 fold | Treatment time at which p69-OAS expression was fully induced ([1]; MCF-7 cells treated with DIM): 6 h | p69-OAS mRNA level at 48 h of treatment ([1]; MCF-7 cells, 48 h): remained elevated | Level of IFNγ in the medium of cultured cells (IFNγ [2]; MCF-7, incubation 1 day): approximately 50±10 pg/mL | Level of IFNγ in the medium of cultured cells (IFNγ [2]; MCF-7, incubation 3 days): ~80 ± 30 pg/mL | Maximum induction of p56 mRNA ([3]; MCF-7 cells treated with DIM): 4.0 fold | Treatment time at which p56 expression was fully induced ([3]; MCF-7 cells treated with DIM): 6 h | p56 mRNA level following 48 h of DIM treatment ([3]; MCF-7 cells, 48 h): returned to near control levels | Expression of the MHC-I complex, DIM treatment alone (MHC-I complex): no significant effect | Increase in G1 blocked cells above the DMSO control (MCF-7 cells [4]): up to 30% | Reduction of cell proliferation compared to controls (MCF-7 cells [5]): ≤ 60% | Maximum induction of IFNγ mRNA (IFNγ [6]; MCF-7 cells treated with DIM): 4.6 fold | Treatment time at which IFNγ expression was fully induced (IFNγ [6]; MCF-7 cells treated with DIM): 6 h | IFNγ mRNA level following 48 h of DIM treatment (IFNγ [6]; MCF-7 cells, 48 h): returned to near control levels | Maximum level of IFNGR1 protein induction (IFNGR1 protein; DIM): about 7 fold | Time at which maximum IFNGR1 protein induction was attained (IFNGR1 protein; DIM): ≤ 24 h | IFNGR1 protein induction (IFNGR1 protein; after 6 hours of exposure to DIM): about 5 fold | IFNGR1 protein level increase compared to DMSO-treated controls (IFNGR1 protein; after 24 h of DIM, persisted to 48 h): approximately 7 fold | Cytokine production, including IFNγ ([7]; intravenous administration): elevated cytokine production | Serum levels of cytokines ([7]; oral, 1-24 h after challenge): stimulated a time-dependent increase in serum levels of cytokines
